Consider 40 molecules from patent US5863936A, “Telomerase inhibitors” (Geron Corporation, priority 1995, dated 1999).

The IC50 is the concentration needed to halve the response being measured.

“And” between values parts separate entries of the source, which are not always exact repeats. Equal values may be shown once. Read-outs that look alike come from different tables or passages of the source.

For this assay, the target named is T1, telomerase (Homo sapiens, UniProt O14746).
T1 construct: cells, tissues, or preferably a cellular extract or other preparation containing telomerase; endogenous in cells
Briefly: Telomerase inhibition (IC50) with cellular extract or other preparation containing telomerase. The class given is biochemical. The text has this:
One method used to identify compounds of the invention that inhibit telomerase activity involves placing cells, tissues, or preferably a cellular extract or other preparation containing telomerase in contact with several known concentrations of a test compound in a buffer compatible with telomerase activity. […] Other methods for determining the inhibitory concentration of a compound of the invention against telomerase can be employed as will be apparent to those of skill in the art based on the disclosure herein.
With the above-described methods, IC50 values for several of the compounds of the present invention were determined. The values reported in Table 1 below are only approximate values; more exact IC50 values can be obtained by repetitive testing.

[1] abbreviates: approximate values, read-out: IC50.

T1 sequence (O14746 whole entry): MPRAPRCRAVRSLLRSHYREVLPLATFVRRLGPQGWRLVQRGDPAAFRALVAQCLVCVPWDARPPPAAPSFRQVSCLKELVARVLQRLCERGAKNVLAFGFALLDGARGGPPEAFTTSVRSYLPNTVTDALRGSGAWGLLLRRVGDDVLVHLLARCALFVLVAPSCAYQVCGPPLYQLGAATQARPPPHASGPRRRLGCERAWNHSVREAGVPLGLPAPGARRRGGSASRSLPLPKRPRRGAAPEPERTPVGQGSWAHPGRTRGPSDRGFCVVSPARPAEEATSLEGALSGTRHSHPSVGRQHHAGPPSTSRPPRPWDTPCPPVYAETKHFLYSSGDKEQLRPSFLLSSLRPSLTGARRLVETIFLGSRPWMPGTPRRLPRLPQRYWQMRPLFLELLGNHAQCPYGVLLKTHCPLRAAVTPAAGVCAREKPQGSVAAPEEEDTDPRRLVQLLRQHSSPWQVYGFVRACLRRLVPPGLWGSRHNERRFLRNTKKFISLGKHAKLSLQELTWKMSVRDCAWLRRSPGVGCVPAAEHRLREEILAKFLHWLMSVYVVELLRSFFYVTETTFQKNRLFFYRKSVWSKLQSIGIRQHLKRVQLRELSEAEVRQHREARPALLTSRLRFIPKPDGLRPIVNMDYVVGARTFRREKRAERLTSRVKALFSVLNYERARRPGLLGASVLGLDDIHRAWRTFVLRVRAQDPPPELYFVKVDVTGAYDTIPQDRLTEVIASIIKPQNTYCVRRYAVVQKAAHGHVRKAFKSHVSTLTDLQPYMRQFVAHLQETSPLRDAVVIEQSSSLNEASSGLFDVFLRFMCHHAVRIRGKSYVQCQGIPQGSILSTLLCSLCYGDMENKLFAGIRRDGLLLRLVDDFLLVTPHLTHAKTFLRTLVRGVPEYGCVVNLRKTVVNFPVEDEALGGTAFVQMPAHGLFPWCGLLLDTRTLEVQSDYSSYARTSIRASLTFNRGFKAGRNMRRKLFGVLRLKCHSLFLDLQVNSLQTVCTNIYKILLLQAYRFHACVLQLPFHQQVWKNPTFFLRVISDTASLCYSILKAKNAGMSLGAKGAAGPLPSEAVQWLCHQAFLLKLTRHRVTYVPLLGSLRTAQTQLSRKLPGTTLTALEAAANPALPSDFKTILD
T1 sequence (O60832 whole entry partner): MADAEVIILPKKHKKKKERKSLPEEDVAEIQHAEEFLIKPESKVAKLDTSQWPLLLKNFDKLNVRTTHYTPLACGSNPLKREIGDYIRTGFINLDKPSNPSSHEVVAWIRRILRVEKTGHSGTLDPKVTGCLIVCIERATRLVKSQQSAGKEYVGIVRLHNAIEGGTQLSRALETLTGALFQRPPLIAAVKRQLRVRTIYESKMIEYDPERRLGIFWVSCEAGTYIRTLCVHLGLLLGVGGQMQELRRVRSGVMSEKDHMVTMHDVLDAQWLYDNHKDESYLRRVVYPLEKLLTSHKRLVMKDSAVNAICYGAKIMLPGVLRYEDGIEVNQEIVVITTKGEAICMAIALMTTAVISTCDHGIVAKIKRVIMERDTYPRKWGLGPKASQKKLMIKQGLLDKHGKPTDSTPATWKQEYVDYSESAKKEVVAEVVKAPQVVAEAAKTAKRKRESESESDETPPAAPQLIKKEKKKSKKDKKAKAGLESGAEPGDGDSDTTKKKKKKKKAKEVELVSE
T1 sequence (Q9NPE3 whole entry partner): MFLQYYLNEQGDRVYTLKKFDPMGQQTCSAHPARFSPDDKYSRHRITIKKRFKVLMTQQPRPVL
T1 sequence (Q9NX24 whole entry partner): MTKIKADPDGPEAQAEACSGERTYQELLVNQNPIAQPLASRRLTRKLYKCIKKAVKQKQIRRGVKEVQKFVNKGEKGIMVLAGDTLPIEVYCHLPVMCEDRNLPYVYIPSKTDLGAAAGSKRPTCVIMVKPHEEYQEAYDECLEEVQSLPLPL
T1 sequence (Q9NY12 whole entry partner): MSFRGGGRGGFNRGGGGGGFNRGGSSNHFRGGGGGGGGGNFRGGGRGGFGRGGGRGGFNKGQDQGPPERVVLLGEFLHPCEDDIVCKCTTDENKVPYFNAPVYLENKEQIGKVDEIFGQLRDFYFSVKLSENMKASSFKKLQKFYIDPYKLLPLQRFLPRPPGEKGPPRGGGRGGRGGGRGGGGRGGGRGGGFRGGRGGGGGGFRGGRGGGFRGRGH

On to `Cc1ccc(Sc2ccccc2NC(=S)NNC(=O)c2cc3cc(NC(=S)Nc4ccccc4Sc4ccc(C)cc4)ccc3s2)cc1` [Compound III], for which the “anti-telomerase activity (in words)” value is recorded as “useful telomerase-inhibiting properties”. Moreover, the IC50 under setting [1] was found to be 12 µM.

As to `Cc1ccc(NC(=S)Nc2ccc3sc(C(=O)NNC(=S)Nc4cc(Cl)ccc4Cl)cc3c2)cc1` [Compound II], the “anti-telomerase activity (in words)” value was “good anti-telomerase activity”. Moreover, the IC50 under setting [1] was 6 µM.

In the case of `Cc1cccc(NC(=S)Nc2ccc3sc(C(=O)NNC(=S)Nc4cc(C(F)(F)F)cc(C(F)(F)F)c4)cc3c2)c1` [Compound IV], the “anti-telomerase activity (in words)” value is “useful telomerase-inhibiting properties”. Also, the IC50 under setting [1] is 23.4 µM.

In the case of `O=C(NNC(=S)Nc1cc(Cl)ccc1Cl)c1cc2ccccc2s1` [Compound VII], the IC50 under setting [1] was determined as 10 µM.

With `CSc1ccc(NC(=S)NNC(=O)c2cc3cc(NC(=S)Nc4cccc(C)c4)ccc3s2)cc1` [Compound VI], the “anti-telomerase activity (in words)” value was “useful telomerase-inhibiting properties”. Also, under setting [1], the IC50 was 6.4 µM.

As for `Cc1ccc(Sc2ccccc2NC(=S)NNC(=O)c2cc3cc(NC(=S)Nc4cccc(C)c4)ccc3s2)cc1` [Compound V], the “anti-telomerase activity (in words)” value was “useful telomerase-inhibiting properties”. The IC50 under setting [1] amounted to 9.7 µM.

In the case of `O=C(NNC(=S)Nc1cc(Br)ccc1Br)c1cc2c(Cl)cccc2s1` [Compound XIII], the IC50 under setting [1] turned out to be 9 µM.

Consider `O=C(NNC(=S)Nc1cc(Cl)c(Cl)c(Cl)c1Cl)c1cc2c(Cl)cccc2s1` [Compound XII], for which the IC50 under setting [1] is 7 µM.

As to `O=C(NNC(=S)Nc1ccc(Cl)c(Cl)c1Cl)c1cc2c(Cl)cccc2s1` [Compound XIV], the IC50 under setting [1] turned out to be 9 µM.

Turning to `O=C(NNC(=S)Nc1cc(Cl)c(Cl)c(Cl)c1Cl)c1sc2ccccc2c1Cl` [Compound XIX], the “anti-telomerase activity (in words)” value was “useful anti-telomerase properties”. In addition, under setting [1], the IC50 is 8 µM.

As for `O=C(NNC(=S)Nc1cc(Cl)c(Cl)cc1Cl)c1cc2c(Cl)cccc2s1` [Compound XI], the IC50 under setting [1] came to 10 µM.

Regarding `O=C(NNC(=S)Nc1ccc(Cl)cc1)c1sc2ccc(Cl)c(Cl)c2c1Cl` [Compound XLI], the IC50 under setting [1] was determined as 8 µM.

Turning to `O=C(NNC(=S)Nc1c(Cl)cc(Cl)cc1Cl)c1sc2ccc(Cl)c(Cl)c2c1Cl` [Compound XL], under setting [1], the IC50 turned out to be 14 µM.

With `COc1ccc2c(Cl)c(C(=O)NNC(=S)Nc3cc(Cl)c(Cl)c(Cl)c3Cl)sc2c1Cl` [Compound XVIII], the IC50 under setting [1] is 15 µM.

On to `COc1ccc2c(Cl)c(C(=O)NNC(=S)Nc3cc(Cl)c(Cl)cc3Cl)sc2c1Cl` [Compound XVII], for which the IC50 under setting [1] is 9 µM.

As to `O=C(NNC(=S)Nc1ccc(Sc2ccc([N+](=O)[O-])cc2)cc1)c1cc2c(F)cccc2s1` [Compound XVI], under setting [1], the IC50 was determined as 6 µM.

For `Cc1ccc(Sc2ccccc2NC(=S)NNC(=O)c2cc3c(Cl)cccc3s2)cc1` [Compound XV], the IC50 under setting [1] worked out at 9 µM.

`Cc1ccc2c(Cl)c(C(=O)NNC(=S)Nc3cccc(Cl)c3Cl)sc2c1` [Compound XXIII]: the IC50 under setting [1] is 10 µM.

Regarding `COc1ccc2c(Cl)c(C(=O)NNC(=S)Nc3ccc(Cl)c(Cl)c3Cl)sc2c1` [Compound XXII], the “anti-telomerase activity (in words)” value is “useful telomerase-inhibiting properties”. The IC50 under setting [1] came out at 8 µM.

For the molecule `O=C(NNC(=S)Nc1cc(Cl)c(Cl)cc1Cl)c1sc2cc(-c3ccccc3)ccc2c1Cl` [Compound XXIV], the half-inhibitory concentration (IC50) under setting [1] amounted to 8 µM.

With `O=C(NNC(=S)Nc1c(Cl)cc(Cl)cc1Cl)c1sc2cc(-c3ccccc3)ccc2c1Cl` [Compound XXIX], the IC50 under setting [1] amounted to 7 µM.

Turning to `COc1ccc2c(Cl)c(C(=O)NNC(=S)Nc3cc(Cl)c(Cl)c(Cl)c3Cl)sc2c1` [Compound XXI], the “anti-telomerase activity (in words)” value was “useful telomerase-inhibiting properties”. In addition, the IC50 under setting [1] worked out at 5 µM.

As for `O=C(NNC(=S)Nc1cc(Br)ccc1Br)c1sc2cc(-c3ccccc3)ccc2c1Cl` [Compound XXVIII], under setting [1], the IC50 amounted to 9 µM.

Take `O=C(NNC(=S)Nc1cc(Cl)ccc1Cl)c1sc2cc(-c3ccccc3)ccc2c1Cl` [Compound XXVII]: under setting [1], the IC50 came to 6 µM.

As to `O=C(NNC(=S)Nc1cccc(Cl)c1Cl)c1sc2cc(-c3ccccc3)ccc2c1Cl` [Compound XXVI], the IC50 under setting [1] was 6 µM.

`O=C(NNC(=S)Nc1cc(Cl)c(Cl)c(Cl)c1Cl)c1sc2cc(-c3ccccc3)ccc2c1Cl` [Compound XXV]: the IC50 under setting [1] is 10 µM.

`O=C(NNC(=S)Nc1cc(Cl)ccc1Cl)c1sc2ccc(Cl)c(Cl)c2c1Cl` [Compound XXXIII]: the IC50 under setting [1] turned out to be 7 µM.

For the molecule `O=C(NNC(=S)Nc1ccc(Cl)cc1Cl)c1sc2ccc(Cl)c(Cl)c2c1Cl` [Compound XXXII], the IC50 under setting [1] turned out to be 7 µM.

As for `O=C(NNC(=S)Nc1ccc(Cl)c(Cl)c1Cl)c1sc2ccc(Cl)c(Cl)c2c1Cl` [Compound XXXIV], the IC50 under setting [1] amounted to 6 µM.

With `O=C(NNC(=S)Nc1cc(Cl)c(Cl)cc1Cl)c1sc2ccc(Cl)c(Cl)c2c1Cl` [Compound XXXIX], the IC50 under setting [1] was 5 µM and ≤ 5 µM.

As for `O=C(NNC(=S)Nc1cccc(Cl)c1Cl)c1sc2ccc(Cl)c(Cl)c2c1Cl` [Compound XXXI], the IC50 under setting [1] is 5 µM and ≤ 5 µM.

On to `O=C(NNC(=S)Nc1ccc2ccccc2c1)c1sc2ccc(Cl)c(Cl)c2c1Cl` [Compound XXXVIII], for which, under setting [1], the IC50 was 5 µM and ≤ 5 µM.

`Cc1ccc(Sc2ccccc2NC(=S)NNC(=O)c2sc3ccc(Cl)c(Cl)c3c2Cl)cc1` [Compound XXXVII]: the half-maximal inhibitory concentration (IC50) under setting [1] is 7 µM.

Turning to `O=C(NNC(=S)Nc1cc(C(F)(F)F)cc(C(F)(F)F)c1)c1sc2ccc(Cl)c(Cl)c2c1Cl` [Compound XXXVI], the IC50 under setting [1] came out at 8 µM.

With `O=C(NNC(=S)Nc1cc(Br)ccc1Br)c1sc2ccc(Cl)c(Cl)c2c1Cl` [Compound XXXV], the IC50 under setting [1] is 6 µM.

Consider `O=C(NNC(=S)Nc1cc(Cl)c(Cl)c(Cl)c1Cl)c1sc2ccc(Cl)c(Cl)c2c1Cl` [Compound XXX], for which, under setting [1], the IC50 is 5 µM and ≤ 5 µM.

Consider `COc1ccc2c(Cl)c(C(=O)NNC(=S)Nc3cc(Cl)c(Cl)cc3Cl)sc2c1` [Compound XX], for which the “anti-telomerase activity (in words)” value is “useful telomerase-inhibiting properties”. Further, the IC50 under setting [1] worked out at 9 µM.

In the case of `Cc1ccc(Sc2ccccc2NC(=S)NNC(=O)c2cc3cccc(F)c3s2)cc1` [Compound X], the IC50 under setting [1] was found to be 6 µM.

`O=C(NNC(=S)Nc1cc(Cl)c(Cl)c(Cl)c1Cl)c1cc2cccc(F)c2s1` [IX]: under setting [1], the IC50 was 5 µM and ≤ 5 µM.

For the setting “IC50, approximate values”, `O=C(NNC(=S)Nc1cc(Cl)c(Cl)cc1Cl)c1cc2cccc(F)c2s1` [VIII] displayed an IC50 of 7 µM.
